pIC50: −log10 of the molar value. Read-outs that look alike come from different tables or passages of the source.
Target: T1, human PI 3-kinase p120γ (Homo sapiens, UniProt P48736)
T1 construct: purchased Millipore Corporation
Experiment: PI 3-kinase p120γ enzyme activity inhibition test
Assay type: biochemical
Details: ATP 10.0 μM, PIP2-PS 5.0 μM, 30° C., 2 hours
Procedure: Using human PI 3-kinase p120γ (manufactured by Millipore Corporation) and a mixed micellized product (hereinafter abbreviated as PIP2-PS) of the substrate thereof, L-a-Phosphatidyl-D-myo-inositol-4,5-bisphosphate (product of Calbiochem, hereinafter abbreviated as PIP2), and L-a-Phosphatidyl-L-Serine (manufactured by Sigma, hereinafter abbreviated as PS), the compound of the present invention was examined for the inhibitory action on PI3 Kinase p120γ enzyme activity (Km=8.9 μM for ATP, Km=4.0 μM for PIP2-PS).
PIP2-PS was prepared by mixing 500 μM of PIP2 and 2.5 nM of PS and sonicating the mixture for 40 minutes while ice cooling to cause micellization. ATP (final concentration 10.0 μM), [γ-^33P] ATP (final concentration 10 μCi/ml), PIP2-PS (final concentration 5.0 μM) and DMSO solutions of the test compound in different concentrations (compound final concentration 1.0×10^−5 to 2.4×10^−12 M, DMSO final concentration 0.1%) were added to PI 3-kinase p120γ, stirred and reacted at 30° C. for 2 hours. Using Phospholipid-Coated FlashPlate Microplates, 96-Well and Phospholipid FlashPlate Coating Buffer (both manufactured by PerkinElmer Co., Ltd.), PIP2-PS and phosphorylated PIP2-PS were allowed to be adsorbed to the well wall of the plate and collected. The well was washed twice with PBS (Phosphate-Buffered Saline) and dried. The radioactivity was measured using Top Count NXT (manufactured by PerkinElmer Co., Ltd.), whereby the phosphorylated amount (a) of PIP2-PS at the time of compound addition was calculated.
The same procedure was carried out in the absence of the test compound and the phosphorylated amount (b) of PIP2-PS was calculated. Further, the same procedure was carried out in the absence of both of the substrate and the test compound, and the PIP2-PS phosphorylated amount (c) of the background was calculated.
The PI3 Kinase p120γ enzyme activity suppression rate of the compound was calculated by the following formula. Suppression rate (%)=[1−(a−c)/(b−c)]×100
More specifically, using the suppression rate by the test compound of different concentrations, the IC50 value was calculated according to the dose-dependent inhibition curve analyzed by a data analysis software Origin (Lightstone Corp.) and used as the inhibitory activity index.

[1] = read-out: PI3Kγ (IC50 value class)

T1 sequence (P48736 whole entry): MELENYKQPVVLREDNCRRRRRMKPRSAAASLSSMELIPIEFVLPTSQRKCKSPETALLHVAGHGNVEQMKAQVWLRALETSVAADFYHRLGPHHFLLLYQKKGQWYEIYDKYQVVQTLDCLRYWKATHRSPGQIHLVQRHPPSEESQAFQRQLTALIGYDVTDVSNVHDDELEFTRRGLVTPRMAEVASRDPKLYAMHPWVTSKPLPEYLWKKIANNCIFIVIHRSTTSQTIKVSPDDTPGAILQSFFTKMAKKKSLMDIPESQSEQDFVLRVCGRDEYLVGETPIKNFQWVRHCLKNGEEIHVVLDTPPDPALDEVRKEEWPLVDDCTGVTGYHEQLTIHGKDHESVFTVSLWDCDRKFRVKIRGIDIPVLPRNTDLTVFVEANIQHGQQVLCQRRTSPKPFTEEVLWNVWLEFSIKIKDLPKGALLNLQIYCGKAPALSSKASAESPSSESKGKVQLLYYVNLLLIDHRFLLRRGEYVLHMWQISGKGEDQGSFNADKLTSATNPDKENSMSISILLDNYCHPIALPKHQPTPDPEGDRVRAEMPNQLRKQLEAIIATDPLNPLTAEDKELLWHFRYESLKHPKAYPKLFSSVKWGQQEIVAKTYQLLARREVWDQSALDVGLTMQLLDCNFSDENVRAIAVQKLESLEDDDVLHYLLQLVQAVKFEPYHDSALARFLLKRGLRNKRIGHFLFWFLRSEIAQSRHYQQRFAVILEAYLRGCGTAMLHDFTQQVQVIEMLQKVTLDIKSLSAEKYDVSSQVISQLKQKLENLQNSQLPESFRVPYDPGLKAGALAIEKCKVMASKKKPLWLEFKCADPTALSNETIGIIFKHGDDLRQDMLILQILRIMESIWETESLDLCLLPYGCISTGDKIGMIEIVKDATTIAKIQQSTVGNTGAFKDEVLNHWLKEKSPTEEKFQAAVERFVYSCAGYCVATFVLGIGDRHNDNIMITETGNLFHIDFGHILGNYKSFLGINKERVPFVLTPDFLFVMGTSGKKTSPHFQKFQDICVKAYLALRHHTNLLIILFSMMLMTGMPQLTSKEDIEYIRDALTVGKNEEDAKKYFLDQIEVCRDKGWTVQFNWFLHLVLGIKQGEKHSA

Compound	pIC50 [1]	pIC50 (read-out: IC50 value)
CC(=O)Nc1nc(C)c(-c2nc(-c3cccnc3)no2)s1 [Example 1, N-{4-methyl-5-[3-(pyridin-3-yl)-1,2,4-oxadiazol-5-yl]-1,3-thiazol-2-yl}acetamide]	> 7.00	–
CC(=O)Nc1nc(C)c(-c2nc(CC3(C)COC3)no2)s1 [Example 41]	> 7.00	–
Cc1nc(NC(=O)NCCNC(=O)C(C)(C)C)sc1-c1nc(-c2cccnc2)no1 [Example 139]	> 7.00	–
CC(=O)Nc1nc(C)c(-c2nc(-c3cnccc3C)no2)s1 [Example 14]	> 7.00	–
CC(=O)Nc1nc(C)c(-c2nc(CC(C)O)no2)s1 (centres unmarked) [Example 38]	6.30 to 7.00	–
CCOC(=O)CCNC(=O)Nc1nc(C)c(-c2nc(-c3cccnc3)no2)s1 [Example 119]	> 7.00	–
CC(=O)Nc1nc(C)c(-c2nc(C[C@H](C)CO)no2)s1 [Example 62]	> 7.00	–
COCCc1noc(-c2sc(NC(C)=O)nc2C)n1 [Example 22]	6.30 to 7.00	–
Cc1nc(NC(=O)NCCCN2CCCC2=O)sc1-c1nc(CC(C)(C)CO)no1 [Example 159]	> 7.00	–
CC(=O)Nc1nc(C)c(-c2nc(C(C)NC(C)=O)no2)s1 (centres unmarked) [Example 77]	5.00 to 6.30	–
CC(=O)Nc1nc(C)c(-c2nc(CC3(CO)COC3)no2)s1 [Example 57]	6.30 to 7.00	–
CC(=O)Nc1nc(C)c(-c2nc(C3CCC3)no2)s1 [Example 26]	> 7.00	–
CC(=O)Nc1nc(C)c(-c2nc(CCN3CCCC3=O)no2)s1 [Example 89]	5.00 to 6.30	–
CC(=O)Nc1nc(C)c(-c2nc([C@H]3CCCO3)no2)s1 [Example 92]	6.30 to 7.00	–
COC(C)(C)Cc1noc(-c2sc(NC(C)=O)nc2C)n1 [Example 84, N-{5-[3-(2-methoxy-2-methylpropyl)-1,2,4-oxadiazol-5-yl]-4-methyl-1,3-thiazol-2-yl}acetamide]	6.30 to 7.00	–
CC(=O)Nc1nc(C)c(-c2nc(CC(C)(C)C(N)=O)no2)s1 [Example 111]	> 7.00	–
CC(=O)Nc1nc(C)c(-c2nc(CCO)no2)s1 [Example 13]	6.30 to 7.00	–
CC(=O)Nc1nc(C)c(-c2nc(Cn3cccn3)no2)s1 [Example 99]	5.00 to 6.30	–
CC(=O)Nc1nc(C)c(-c2nc(C(C)(C)C)no2)s1 [Example 2, N-[5-(3-tert-butyl-1,2,4-oxadiazol-5-yl)-4-methyl-1,3-thiazol-2-yl]acetamide]	> 7.00	–
CC(=O)Nc1nc(C)c(-c2nc(CC(C)(C)C(C)O)no2)s1 (centres unmarked) [Example 85]	> 7.00	–
CC(=O)Nc1nc(C)c(-c2nc(CS(C)(=O)=O)no2)s1 [Example 24]	> 7.00	–

Compound	pIC50 [1]	pIC50 (read-out: IC50 value)
Cc1nc(NC(=O)NCCCOC(C)(C)C)sc1-c1nc(CC(C)(C)CO)no1 [Example 160]	> 7.00	–
Cc1nc(N)sc1-c1nc(CC(F)(F)F)no1 [Example 146]	> 7.00	–
Cc1nc(NC(=O)NCCC(=O)N2CCC(O)CC2)sc1-c1nc(CC(F)(F)F)no1 [Example 166]	> 7.00	–
Cc1nc(NC(=O)NCCC(=O)OC(C)(C)C)sc1-c1nc(C2CCCCC2)no1 [Example 153]	> 7.00	–
CC(=O)Nc1nc(C)c(-c2nc([C@H](O)C(C)(C)C)no2)s1 [Example 69]	> 7.00	–
CC(=O)Nc1nc(C)c(-c2nc(-c3ccc(C)nc3)no2)s1 [Example 17]	> 7.00	–
Cc1nc(NC(=O)NCCc2ccccn2)sc1-c1nc(-c2cccnc2)no1 [Example 171]	> 7.00	–
Cc1nc(NC(=O)NCCC(=O)N2CCC(O)CC2)sc1-c1nc(-c2cccnc2)no1 [Example 150]	> 7.00	–
CC(=O)Nc1nc(C)c(-c2nc(CC(C)(CO)CO)no2)s1 [Example 42]	> 7.00	–
CC(=O)Nc1nc(C)c(-c2nc(C(=O)N3CC(O)C3)no2)s1 [Example 90]	6.30 to 7.00	–
CCOC(=O)c1noc(-c2sc(NC(C)=O)nc2C)n1 [Example 55, Ethyl-5-[2-(acetylamino)-4-methyl-1,3-thiazol-5-yl]-1,2,4-oxadiazol-3-carboxylate]	6.30 to 7.00	–
CC(=O)Nc1nc(C)c(-c2nc(-c3cncc(O)c3)no2)s1 [Example 32]	> 7.00	–
CC(=O)Nc1nc(C)c(-c2nc(C3CCCOC3)no2)s1 (centres unmarked) [Example 112]	> 7.00	–
CC(=O)Nc1nc(C)c(-c2nc(C3CCOC3)no2)s1 (centres unmarked) [Example 63]	> 7.00	–
Cc1nc(NC(=O)NCCC(=O)OC(C)(C)C)sc1-c1nc(CC(F)(F)F)no1 [Example 147]	> 7.00	–
CC(=O)Nc1nc(C)c(-c2nc(-c3ccc(CO)cc3)no2)s1 [Example 25]	> 7.00	–
CC(=O)Nc1nc(C)c(-c2nc(-c3ccccn3)no2)s1 [Example 10]	6.30 to 7.00	–
CC(=O)Nc1nc(C)c(-c2nc(CC(C)(C)CN)no2)s1 [Example 43]	5.00 to 6.30	–
CC(=O)Nc1nc(C)c(-c2nc(CCC(C)C)no2)s1 [Example 82]	> 7.00	7.06
CC(=O)Nc1nc(C)c(-c2nc(CC(C)(C)C(C)=O)no2)s1 [Example 86]	> 7.00	–
CC(=O)Nc1nc(C)c(-c2nc(CCCCOC(C)=O)no2)s1 [Example 59]	5.00 to 6.30	–

Compound	pIC50 [1]	pIC50 (read-out: IC50 value)
Cc1nc(NC(=O)NCCCN2CCOCC2)sc1-c1nc(-c2cccnc2)no1 [Example 142]	> 7.00	–
CC(=O)CCc1noc(-c2sc(NC(C)=O)nc2C)n1 [Example 66]	6.30 to 7.00	–
COCc1noc(-c2sc(NC(C)=O)nc2C)n1 [Example 50]	6.30 to 7.00	–
Cc1nc(NC(=O)NCCC(=O)OC(C)(C)C)sc1-c1nc(-c2cncnc2)no1 [Example 141]	> 7.00	–
CC(=O)Nc1nc(C)c(-c2nc(Cc3cccc(O)c3)no2)s1 [Example 49]	6.30 to 7.00	–
Cc1nc(NC(=O)NCCc2cn(C(C)C)cn2)sc1-c1nc(CC(C)(C)CO)no1 [Example 162]	> 7.00	–
Cc1nc(NC(=O)NCCC(=O)O)sc1-c1nc(-c2cccnc2)no1 [Example 136]	> 7.00	–
Cc1nc(NC(=O)NCC(C)O)sc1-c1nc(-c2cccc(O)c2)no1 (centres unmarked) [Example 174]	> 7.00	–
CC(=O)Nc1nc(C)c(-c2nc(CC(C)(C)O)no2)s1 [Example 34]	> 7.00	–
Cc1nc(NC(=O)N2CCC(O)CC2)sc1-c1nc(-c2cccnc2)no1 [Example 137]	5.00 to 6.30	–
CC(=O)Nc1nc(C)c(-c2nc(-c3cnccn3)no2)s1 [Example 23]	> 7.00	–
CC(=O)Nc1nc(C)c(-c2nc(CC3CCOCC3)no2)s1 [Example 45]	6.30 to 7.00	–
Cc1nc(NC(=O)OCCC(=O)OC(C)(C)C)sc1-c1nc(-c2cccnc2)no1 [Example 129, Tert-butyl-3-[({4-methyl-5-[3-(pyridin-3-yl)-1,2,4-oxadiazol-5-yl]-1,3-thiazol-2-yl}carbamoyl)oxy]propanoate]	> 7.00	–
Cc1nc(NC(=O)NCCC(=O)NC(C)(CO)CO)sc1-c1nc(-c2cccnc2)no1 [Example 152]	> 7.00	–
CC(=O)Nc1nc(C)c(-c2nc(C3CC3)no2)s1 [Example 83]	> 7.00	–
COC(=O)c1cncc(-c2noc(-c3sc(NC(C)=O)nc3C)n2)c1 [Example 37]	> 7.00	–
CC(=O)Nc1nc(C)c(-c2nc(CC3(CO)CC3)no2)s1 [Example 48]	> 7.00	–
CC(=O)Nc1nc(C)c(-c2nc(Cc3cccnc3)no2)s1 [Example 8]	5.00 to 6.30	–
CC(=O)Nc1nc(C)c(-c2nc(C(=O)N3CCOCC3)no2)s1 [Example 72, N-{4-methyl-5-[3-(morpholin-4-ylcarbonyl)-1,2,4-oxadiazol-5-yl]-1,3-thiazol-2-yl}acetamide]	5.00 to 6.30	–
